Laboratory results: US20130189320A1, “METHOD OF PREPARING A CONTROLLED RELEASE PARTICLE OF SOY ISOFLAVONE WITH BIODEGRADABLE POLYMER USING A SUPERCRITICAL FLUID EXTRACTION OF EMULSION (SFEE) PROCESS” (Nano and Advanced Materials Institute Limited, priority 2012, published 2013)

Columns and labels:
[1] = particle morphology and size under scanning electron microscope (SEM); assay type: physicochemical
From the text: It appears from the SEM images that the particle of genistein with PLGA has a nearly spherical shape and an average size of less than 1 μm. In comparison, the raw genistein is rectangular rod-shaped and the width (i.e., the shortest side of the rectangular rod-shaped raw genistein) is about 10 μm. PLGA matrix can protect genistein from degradation in the gastrointestinal tract and also from first-pass metabolism in the liver. Meanwhile, the nearly spherical shape of the genistein particle with the size less than 1 μm has a larger surface area to favor the interaction between the particle and the target cell in order to increase the chance of localizing on the target cell and delivering the genistein encapsulated in the particle in a controlled release manner.

[2] = in vitro drug release study, aqueous medium containing 1% Tween 80; assay type: physicochemical; settings: 24-hour period, FIG. 3
From the text: In the drug release study, an aqueous medium containing 1% Tween 80 is used to re-suspend the genistein-containing PLGA particles or the raw genistein. The cumulative release percentage of the encapsulated genistein from the PLGA coated particles and that of the raw genistein without PLGA for a 24-hour period is shown in FIG. 3. […] That may be due to the presence of free and weakly bound drug on the surface of particulate carriers. […] In FIG. 3, the encapsulated genistein from the PLGA coated particles has a cumulative release percentage of below 20% within the first 24 hours while the raw genistein has over 40% of release over the 24-hour period. From this in vitro study, it could be said that the extended release profile of genistein-containing PLGA particles can increase the chance of genistein to be utilized in human body, which further leads to an improved bioavailability. The slower the release rate is, more available active ingredients are released to a specific site of action.

width (shortest side of rectangular rod-shaped particle) [1]: about 10 μm | cumulative release percentage of genistein [2]: over 40%
Structure (SMILES): O=c1c(-c2ccc(O)cc2)coc2cc(O)cc(O)c12 [raw genistein, genistein]
